The values that follow come from patent US9862742B2, “Tricyclic nucleosides and oligomeric compounds prepared therefrom” (UNIVERSITAT BERN, priority 2013, dated 2018).

Oligonucleotides are written 5' to 3', each unit as a sugar letter and its base; * is a phosphorothioate linkage, no mark a phosphodiester; rarer units and linkages stand in square brackets, end groups in braces. Plain capitals give the bases only. [6'F-TC-N] = 6'-fluorinated tricyclic nucleoside, subtype b of the publication (N: the base); [F-tcDNA] = 6'-fluoro tricyclic (tricyclo-DNA) nucleoside; [tcDNA-N] = tricyclo-DNA nucleoside (N: the base); [tcDNA] = tricyclo-DNA nucleoside; d = 2'-deoxy (DNA); {P} = phosphate

One data set has as its system complementary DNA. The experiment in a line: Tm study of oligomeric compounds duplexed with complementary DNA (UV melting). It is filed as binding. The settings on record: 1.2 μM, 150 mM NaCl, 10 mM phosphate, 0.1 mM EDTA, pH 7; for ΔTm/mod (° C.) vs DNA: referenced to unmodified DNA or to the fully modified tricyclo-DNA oligomer. Here is the method:
(§1) The relative ability of a chemically-modified oligomeric compound to bind to complementary nucleic acid strands, as compared to natural oligonucleotides, is measured by obtaining the melting temperature of a hybridization complex of said chemically-modified oligomeric compound with its complementary unmodified target nucleic acid. The melting temperature (Tm), a characteristic physical property of double helixes, denotes the temperature in degrees centigrade at which 50% helical versus coiled (unhybridized) forms are present. Tm (also commonly referred to as binding affinity) is measured by using the UV spectrum to determine the formation and breakdown (melting) of hybridization. Base stacking, which occurs during hybridization, is accompanied by a reduction in UV absorption (hypochromicity). Consequently a reduction in UV absorption indicates a higher Tm. Following standard automated DNA synthesis protocols oligomeric compounds were prepared comprising one or more tricyclic nucleosides for Tm studies. After cleavage from the solid support, the oligomeric compounds were purified by ion exchange HPLC and analyzed by LCMS using standard procedures. The Tm of the modified 10 mer oligomeric compounds were compared to an unmodified 10 mer DNA oligonucleotide when duplexed to either DNA or RNA. Tm's were determined using a Cary 100 Bio spectrophotometer with the Cary Win UV thermal program was used to measure absorbance vs. temperature. For the Tm experiments, the oligomeric compounds were prepared at a concentration of 1.2 μM in a buffer of 150 mM NaCl, 10 mM phosphate, 0.1 mM EDTA at pH 7. The concentration determined at 85° C. was 1.2 μM after mixing of equal volumes of selected oligomeric compound and complementary RNA or DNA. The oligomeric compounds were hybridized with a complementary RNA or DNA by heating the duplex to 90° C. for 5 minutes and then cooling to room temperature. Tm measurements were taken using a spectrophotometer while the duplex solution was heated in a cuvette at a rate of 0.5° C./min starting at 15° C. until the temperature was 85° C. Tm values were determined using Vant Hoff calculations (A260 vs temperature curve) using non self-complementary sequences where the minimum absorbance related to the duplex and the maximum absorbance related to the non-duplex single strand are manually integrated into the program.

For a further data set, the system named is complementary RNA. As to the kind of experiment: Tm study of oligomeric compounds duplexed with complementary RNA (UV melting). It is filed as binding. As to conditions: 1.2 μM, 150 mM NaCl, 10 mM phosphate, 0.1 mM EDTA, pH 7; for ΔTm/mod (° C.) vs RNA: referenced to unmodified DNA or to the fully modified tricyclo-DNA oligomer. Here is the method: as §1

The test system of data set [1] is exon 23 of the mouse dystrophin gene. As to the kind of experiment: Exon 23 skipping in primary mdx cells, gymnotic delivery, RT-PCR/nested PCR and gel electrophoresis. The settings on record: for exon skipping (exon 23, gel of nested PCR products): 50 μg (approx 9 nmol) oligonucleotide, no transfection agent (gymnosis), harvested 4 days after transfection. The class given is cell-based. An excerpt:
The mdx mouse represents a model for the human genetic disease Duchenne muscular dystrophy. It contains a mutation in exon 23 of the mouse dystrophin gene which gives rise to a premature stop codon. As a consequence no functional dystrophin mRNA and dystrophin protein is produced. It is known in the field (Lu et al., Proc Natl Acad Sci USA 2005, 102, 198-203) that administration of an antisense oligonucleotide designed to bind to the exon/intron junction of exon 23 leads to skipping of exon 23 during mRNA splicing and thus to a functional variant of the mouse dystrophin protein.
To test the exon skipping potential of A20-A23, mdx primary cells (mdx mouse) were transfected without transfection agents (gymnosis) with 50 μg (approx 9 nmol) of each oligonucleotide A20 to A23. Cells were harvested 4 days after transfection and the RNA was extracted. RT-PCR and nested PCR around exon 23 (EX20F/Ex26R) was performed and the products analyzed by gel electrophoresis (FIG. 1).
The slower moving band correspond to nonskipped RNA (including […]) while the faster moving band corresponds to skipped ([…] excluded) RNA.

As to “SEQ ID NO. 01: unmodified 10 mer DNA oligonucleotide AACTGTCACG, phosphodiester (unmodified DNA) [reference compound]”, the “Tm duplexed with DNA” value with complementary DNA was found to be 43.5 °C. The “Tm duplexed with RNA” value in the data set on complementary RNA stood at 45.1 °C.
Take “13 (AACTGT_{d}CACG; as printed in the source, key not given here) [compound 13]”: in the data set on complementary DNA, the “ΔTm/mod (° C.) vs DNA” value was −4.5 °C. Besides, in the data set on complementary RNA, the “ΔTm/mod (° C.) vs RNA” value was −4.7 °C.
For “17 (GCAT_{d}T_{d}T_{d}T_{d}T_{d}ACCG; as printed in the source, key not given here) [compound 17]” the same measures were -1.1 °C and “+0.6 °C”.
In the case of “SEQ ID NO. 06: pAaAaCaTaGaTaCaAaCaGa, fully modified tricyclo-DNA, 5′-phosphorylated (AACTGTCACG; all [tcDNA-N], all phosphodiester, 5' {P}, methylation of C not given here) [reference compound]”, the “Tm duplexed with DNA” value in the data set with complementary DNA was 55.0 °C. Also, the “Tm duplexed with RNA” value in the data set with complementary RNA stood at 66.2 °C.
Consider “SEQ ID NO. 17: GCATdTdTdTdTdACCG, 5 consecutive arabinofluoro residues (GCATTTTTACCG; listed as DNA, chemistry not fully specified)”, for which the “ΔTm/mod (° C.) vs RNA” value with complementary RNA is “+0.6 °C”.
For the substance “12 (AACT_{c}GT_{c}CACG; as printed in the source, key not given here) [compound 12]”, the “ΔTm/mod (° C.) vs DNA” value with complementary DNA is “+1.8 °C”. Besides, the “ΔTm/mod (° C.) vs RNA” value in the data set with complementary RNA was “+2.8 °C”.
The like results for “05 (dAdAdC[6'F-TC-T]dG[6'F-TC-T]dCdAdCdG) [compound 05]” were, in that order, 0 °C and 0 °C.
For “14 (AACT_{d}GTCACG; as printed in the source, key not given here) [compound 14]” the same measures were −2.7 °C and −2.5 °C.
Take “06 (pA_{a}A_{a}C_{a}T_{a}G_{a}T_{a}C_{a}A_{a}C_{a}G_{a}; fully modified with subtype a nucleosides (not given here), 5'-phosphate, phosphodiester, as printed in the source, key not given here) [compound 06]”: the “ΔTm/mod (° C.) vs DNA” value in the data set with complementary DNA is 0 °C. In addition, the “ΔTm/mod (° C.) vs RNA” value in the data set on complementary RNA amounted to 0 °C.
In the case of “01 (AACTGTCACG; unmodified DNA) [compound 01]”, the “ΔTm/mod (° C.) vs DNA” value with complementary DNA came to 0 °C. Further, the “ΔTm/mod (° C.) vs RNA” value in the data set on complementary RNA was 0 °C.
As for “SEQ ID NO. 16: unmodified oligonucleotide GCATTTTTACCG (unmodified DNA) [reference compound]”, the “Tm duplexed with DNA” value in the data set on complementary DNA amounted to 45.6 °C. The “Tm duplexed with RNA” value in the data set on complementary RNA stood at 42.2 °C.
Regarding “07 (pA_{a}A_{a}C_{a}T_{a}G_{a}T_{b}C_{a}A_{a}C_{a}G_{a}; as printed in the source, key not given here) [compound 07]”, the “ΔTm/mod (° C.) vs DNA” value in the data set on complementary DNA turned out to be 0 °C. Moreover, the “ΔTm/mod (° C.) vs RNA” value in the data set with complementary RNA is “+0.7 °C”.
For “15 (AACT_{d}GT_{d}CACG; as printed in the source, key not given here) [compound 15]” the same measures were −4.3 °C and −3.0 °C.
For “10 (AACTGT_{c}CACG; as printed in the source, key not given here) [compound 10]”, the “ΔTm/mod (° C.) vs DNA” value in the data set on complementary DNA is “+1.8 °C”. Also, the “ΔTm/mod (° C.) vs RNA” value with complementary RNA was “+0.9 °C”.
The like results for “03 (dAdAdCdTdG[6'F-TC-T]dCdAdCdG) [compound 03]” were, in that order, “+2.0 °C” and “+0.4 °C”.
Consider “SEQ ID NO. 21: pAaAaCbCbTbCbGaGaCbTbTbAaCbCbTb, fluoro-oligonucleotide 15-mer, PS linkages, 5′-phosphate, C is 5-methylcytosine (AACCTCGGCTTACCT; fluoro tricyclo-DNA, PS, 5′-phosphate, 5-methylcytosine; Sequence for biophysical analysis; (1)..(1) tricyclic nucleoside according to fomula I with T1 being phosphate, T2 being phosphorothioate, Bx being adenine and the other substituents being hydrogen; (2)..(2) tricyclic nucleoside according to fomula I with T1 and T2 being phosphorothioate, Bx being adenine and the other substituents being hydrogen; (3)..(3) tricyclic nucleoside according to fomula)”, for which the “exon skipping (exon 23, gel of nested PCR products)” value in data set [1] is recorded as “substantial exon skipping”. Moreover, the “exon skipping, qualitative comparison with A21” value in data set [1] (50 μg, gymnosis, 4 days) is reported as “slightly superior compared to A21”.
Regarding “08 (pA_{a}A_{a}C_{a}T_{b}G_{a}T_{a}C_{a}A_{a}C_{a}G_{a}; as printed in the source, key not given here) [compound 08]”, in the data set with complementary DNA, the “ΔTm/mod (° C.) vs DNA” value is −1.6 °C. Also, in the data set with complementary RNA, the “ΔTm/mod (° C.) vs RNA” value is “+0.3 °C”.
For the substance “SEQ ID NO. 19: pAaAaCaCaTaCaGaGaCaTaTaAaCaCaTa, 15-mer tricyclo-DNA, PS linkages, 5′-phosphate, no fluorine substituents ({P}-[tcDNA-A]*[tcDNA-A]*[tcDNA-C]*[tcDNA-C]*[tcDNA-T]*[tcDNA-C]*[tcDNA-G]*[tcDNA-G]*[tcDNA-C]*[tcDNA-T]*[tcDNA-T]*[tcDNA-A]*[tcDNA-C]*[tcDNA-C]*[tcDNA-T]) [reference compound]”, in data set [1], the “exon skipping (exon 23, gel of nested PCR products)” value was “substantial exon skipping”.
As for “SEQ ID NO. 07: pAaAaCaTaGaTbCaAaCaGa, tricyclo-DNA backbone with one 6′-fluoro residue, 5′-phosphorylated (AACTGTCACG; sugars from the 5' end [tcDNA]5 [F-tcDNA]1 [tcDNA]4, all phosphodiester, 5' {P}, methylation of C not given here)”, the “ΔTm/mod (° C.) vs RNA” value in the data set with complementary RNA is “up to +0.7 °C”.
Turning to “04 (dAdAdC[6'F-TC-T]dGdTdCdAdCdG) [compound 04]”, the “ΔTm/mod (° C.) vs DNA” value in the data set on complementary DNA is “+1.6 °C”. In the data set with complementary RNA, the “ΔTm/mod (° C.) vs RNA” value was “+0.7 °C”.
The like results for “02 (AACTGTCACG; sugars from the 5' end d5 [tcDNA]1 d4, all phosphodiester, methylation of C not given here) [compound 02]” were, in that order, “+2.1 °C” and “+0.9 °C”.
The like results for “16 (GCATTTTTACCG; unmodified DNA) [compound 16]” were, in that order, 0 °C and 0 °C.
For “09 (pA_{a}A_{a}C_{a}T_{b}G_{a}T_{b}C_{a}A_{a}C_{a}G_{a}; as printed in the source, key not given here) [compound 09]” the same measures were −1.8 °C and −0.2 °C.
